Counter-ions that a name gives are not always drawn.
Experiments:
[1] = test system: papillary muscles of a right ventricle; experiment: Pharmacological Test 1: contraction of isolated right ventricular papillary muscles upon electric stimulation (inotropic effect); design: species or system male Hartley guinea pig; settings: 3×10^-5 M; percentage of increment of contractile force, isoprotelenol (1×10^-8 M) = 100%; 1 Hz stimulation, 30° C.
Protocol: (§1) Nos. of the compounds in the pharmacological tests 1 and 2 correspond to those in Examples referred to hereinafter.
(§2) A heart was removed from a male Hartley guinea pig (having a body weight of about 400 g or so) and a right atrium and papillary muscles of a right ventricle were separated from the removed heart. These preparations were suspended in 15 ml of Magnus' bath under load of 0.5 g (papillary muscles) or 1.0 g (right atria). Contraction of papillary muscles upon electric stimulation (1 Hz, 5 msec, 1.5×threshold voltage) and spontaneous contraction of the right atria were recorded through a transducer (manufactured by Orientec, T7-8-240) by a polygraph system (manufactured by NIHONKOHDEN, RMP-6008 and WT-685G).
(§3) Krebs-Henseleit solution was used as nutritive liquid bubbled with mixed gases of 95% O2 with 5% CO2 at 30° C. The value of inotropic effect is a percentage of increment of contractile force by samples when that by isoprotelenol (1×10^-8 M) is considered to be 100%. The value of chronotropic effect is a percentage of atrial rate after the injection of samples when the atrial rate before the injection is considered to be 100%.

right atria = experiment: Pharmacological Test 1: spontaneous contraction of isolated right atria (chronotropic effect); design: species or system male Hartley guinea pig; settings: Cavia porcellus; 3×10^-5 M; percentage of atrial rate after injection, rate before injection = 100%; 30° C.
Protocol: as §1, §2, §3

[2] = Pharmacological Test 2: acute toxicity, tail vein administration, up-and-down method; settings: mouse, in vivo, iv, tail vein of ddY mice, in physiological saline solution
Protocol: as §1
The acute toxicity was determined by administrating the sample compound, which was dissolved by physiological saline solution, in the tail vein of ddY mice (5-weeks-old, having a body weight of 25 to 28 g) and LD50 was obtained by the up-and-down method.

O=C1CCC(C2=CCN(CC(O)c3ccc(F)cc3)CC2)=NN1 (stereo not drawn) [Compound 51, 6-[1-[2-(4-Fluorophenyl)-2-hydroxyethyl]-1,2,5,6-tetrahydropyrid-4-yl]-4,5-dihydropyridazin-3 (2H)-one]
Inotropic Effect [1]: 36.8% | activity at 30 µM (right atria): 91.4%

O=C1CCC(C2=CCN(CC(O)c3ccc([N+](=O)[O-])cc3)CC2)=NN1 (stereo not drawn) [Compound 53, 4,5-Dihydro-6-[1-[2-hydroxy-2-(4-nitrophenyl)ethyl]-1,2,5,6-tetrahydropyrid-4-yl]pyridazin-3 (2H)-one]
Inotropic Effect [1]: 102.9% | activity at 30 µM (right atria): 87.8%

O=C1CCC(C2=CCN(CC(O)c3ccccc3C(F)(F)F)CC2)=NN1 (stereo not drawn) [Compound 54, 4,5-Dihydro-6-[1-[2-hydroxy-2-[2-(trifluoromethyl)phenyl]ethyl]-1,2,5,6-tetrahydropyrid-4-yl]pyridazin-3 (2H) -one]
Inotropic Effect [1]: 25.2% | activity at 30 µM (right atria): 97.3%

O=C1CNC(C2=CCN(CC(O)c3ccc(Cl)cc3)CC2)=NN1 (stereo not drawn) [Compound 57, 3-[1-[2-(4-Chlorophenyl)-2-hydroxyethyl]-1,2,5,6-tetrahydropyrid-4-yl]-4,5-dihydro-1,2,4-triazin-6 (1H)-one]
Inotropic Effect [1]: 46.8% | activity at 30 µM (right atria): 94.9%

O=C1CNC(C2=CCN(CC(O)c3ccc([N+](=O)[O-])cc3)CC2)=NN1 (stereo not drawn) [Compound 60, 4,5-Dihydro-3-[1-[2-hydroxy-2-(4-nitrophenyl)ethyl]-1,2,5,6-tetrahydropyrid-4-yl]-1,2,4-triazin-6(1H)-one]
Inotropic Effect [1]: 43.8% | activity at 30 µM (right atria): 92.6%

N#Cc1ccc(C(O)CN2CC=C(C3=NNC(=O)CN3)CC2)cc1 (stereo not drawn) [Compound 64, 3-[1-[2-(4-Cyanophenyl)-2-hydroxyethyl]-1,2,5,6-tetrahydropyrid-4-yl]-4,5-dihydro-1,2,4-triazin-6(1H)-one]
Inotropic Effect [1]: 23.8% | activity at 30 µM (right atria): 93%

O=C1NN=C(C2=CCN(CC(O)c3ccc4ccccc4c3)CC2)CS1 (stereo not drawn) [Compound 69, 5-[1-[2-Hydroxy-2-(2-naphthyl)ethyl]-1,2,5,6-tetrahydropyrid-4-yl]-3H, 6H-1,3,4-thiadiazin-2-one]
Inotropic Effect [1]: 28.6% | activity at 30 µM (right atria): 79.7%

COc1ccc(C(CN2CC=C(C3=NNC(=O)CS3)CC2)OC)cc1 (stereo not drawn) [Compound 70, 2-[1-[2-Methoxy-2-(4-methoxyphenyl)ethyl]-1,2,5,6-tetrahydropyrid-4-y1]-4H,6H-1,3,4-thiadiazin-5-one]
Inotropic Effect [1]: 56.0% | activity at 30 µM (right atria): 99.2%

COc1ccc(C(CN2CC=C(C3=NNC(=O)CS3)CC2)OC(C)C)cc1 (stereo not drawn) [Compound 71, 2-[1-[2-Isopropoxy-2-(4-methoxyphenyl)ethyl]-1,2,5,6-tetrahydropyrid-4-yl]-4H,6H-1,3,4-thiadiazin-5-one]
Inotropic Effect [1]: 25.3% | activity at 30 µM (right atria): 98.7%

O=C1CSC(c2ccncc2)=NN1 [a, 2-(4-Pyridyl)-4H,6H-1,3,4-thiadiazin-5-one, reference compound]
Inotropic Effect [1]: 22.2% | activity at 30 µM (right atria): 159%

O=C1NN=C(c2ccncc2)CS1 [b, 5-(4-Pyridyl)-3H,6H-1,3,4-thiadiazin-2-one, reference compound]
Inotropic Effect [1]: 36.2% | activity at 30 µM (right atria): 117%

O=C1CCC(c2ccncc2)=NN1 [c, 4,5-Dihydro-6-(4-pyridyl)-pyridazin-3(2H)-one, reference compound]
Inotropic Effect [1]: 7.3% | activity at 30 µM (right atria): 110%

O=C1CNC(c2ccncc2)=NN1 [d, 4,5-Dihydro-3-(4-pyridyl)-1,2,4-triazin-6(1H)-one, reference compound]
Inotropic Effect [1]: 4.6% | activity at 30 µM (right atria): 112%

O=C1CSC(C2=CCN(CC(O)c3ccc(Cl)cc3)CC2)=NN1 (stereo not drawn) [hydrochloride of compound 13, Hydrochloride of 2-[1-[2-(4-chlorophenyl)-2-hydroxyethyl]-1,2,5,6-tetrahydropyrid-4-yl]-4H,6H-1,3,4-thiadiazin-5-one]
LD50 [2]: 101 mg/kg

Cc1cccc(C(O)CN2CC=C(C3=NNC(=O)CS3)CC2)c1 (stereo not drawn) [hydrochloride of compound 20, Hydrochloride of 2-[1-[2-hydroxy-2-(3-methylphenyl)ethyl]-1,2,5,6-tetrahydropyrid-4-yl]-4H,6H-1,3,4-thiadiazin-5-one]
LD50 [2]: 173 mg/kg

Cc1ccc(C(O)CN2CC=C(C3=NNC(=O)CS3)CC2)cc1 (stereo not drawn) [hydrochloride of compound 21, Hydrochloride of 2-[1-[2-hydroxy-2-(4-methylphenyl)ethyl]-1,2,5,6-tetrahydropyrid-4-yl]-4H,6H-1,3,4-thiadiazin-5-one]
LD50 [2]: 226 mg/kg

Cc1ccc(C(O)CN2CC=C(C3=NNC(=O)CS3)CC2)c(C)c1 (stereo not drawn) [hydrochloride of compound 25, Hydrochloride of 2-[1-[2-hydroxy-2-(2,4-dimethylphenyl)ethyl]-1,2,5,6-tetrahydropyrid-4-yl]-4H,6H-1,3,4-thiadiazin-5-one]
LD50 [2]: 135 mg/kg

O=C1CSC(C2=CCN(CC(O)c3cccc([N+](=O)[O-])c3)CC2)=NN1 (stereo not drawn) [hydrochloride of compound 30, Hydrochloride of 2-[1-[2-hydroxy-2-(3-nitrophenyl)ethyl]-1,2,5,6-tetrahydropyrid-4-yl]-4H,6H-1,3,4-thiadiazin-5-one]
LD50 [2]: 160 mg/kg

O=C1CSC(C2=CCN(CC(O)c3ccc(F)cc3)CC2)=NN1 (stereo not drawn) [hydrochloride of compound 35, Hydrochloride of 2-[1-[2-(4-fluorophenyl)-2-hydroxyethyl]-1,2,5,6-tetrahydropyrid-4-yl]-4H,6H-1,3,4-thiadiazin-5-one]
LD50 [2]: 226 mg/kg

O=C1CNC(C2=CCN(CC(O)c3ccc([N+](=O)[O-])cc3)CC2)=NN1 (stereo not drawn) [hydrochloride of compound 60, Hydrochloride of 4,5-dihydro-3-[1-[2-hydroxy-2-(4-nitrophenyl)ethyl]-1,2,5,6-tetrahydropyrid-4-yl]-1,2,4-triazin-6(1H)-one]
LD50 [2]: 226 mg/kg

— patent publication US5574033A, “Heterocyclic compound and cardiotonic agent containing the same as effective component” (Zenyaku Kogyo Kabushiki Kaisha, priority 1991, dated 1996)
